Relative viability data for one cell line are collected here from the supplement of paper PMC10307832.

Common to all, as to test: relative viability (nuclei count vs DMSO), 5 days (fraction); higher = more cells survive
Compound in the assay “Carboplatin + Pemetrexed”: C1CC(C1)(C(=O)O)C(=O)O.[NH2-].[NH2-].[Pt+2] [Carboplatin] + Nc1nc2[nH]cc(CCc3ccc(C(=O)N[C@@H](CCC(=O)O)C(=O)O)cc3)c2c(=O)[nH]1 [Pemetrexed] (partner 0.2 µM)
In outline:
(§1)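 After 5 days of treatment, lung cancer cells in 1536-well plates were fixed and stained in a single step (final 0.05% Triton X-100, 1% formaldehyde, 1 ug/ml Hoechst) and their nuclei counted on 4× images. Treatment had been applied by pin tool the day after seeding as one drug alone or as a fixed anchor-drug dose with five library-drug doses (not always all listed) in √10 steps. Relative viability is the nuclei count of treated wells divided by that of vehicle wells, and values are medians of duplicate plates.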

Compound in the assay “MLN4924 + Palbociclib”: NS(=O)(=O)OC[C@@H]1C[C@@H](n2ccc3c(N[C@H]4CCc5ccccc54)ncnc32)C[C@@H]1O [MLN4924] + CC(=O)c1c(C)c2cnc(Nc3ccc(N4CCNCC4)cn3)nc2n(C2CCCC2)c1=O [Palbociclib] (partner 0.5 µM)
The essentials: as §1

Compound in the assay “MLN4924 + Dasatinib”: NS(=O)(=O)OC[C@@H]1C[C@@H](n2ccc3c(N[C@H]4CCc5ccccc54)ncnc32)C[C@@H]1O [MLN4924] + Cc1nc(Nc2ncc(C(=O)Nc3c(C)cccc3Cl)s2)cc(N2CCN(CCO)CC2)n1 [Dasatinib] (partner 0.075 µM)
The essentials: as §1

Compound in the assay “MLN4924 + Pemetrexed”: NS(=O)(=O)OC[C@@H]1C[C@@H](n2ccc3c(N[C@H]4CCc5ccccc54)ncnc32)C[C@@H]1O [MLN4924] + Nc1nc2[nH]cc(CCc3ccc(C(=O)N[C@@H](CCC(=O)O)C(=O)O)cc3)c2c(=O)[nH]1 [Pemetrexed] (partner 0.2 µM)
In outline:
as §1

Take UMC-11: the relative viability with Carboplatin + Pemetrexed (first compound 0.08 µM) amounted to 0.853; in the assay with Carboplatin + Pemetrexed (first compound 0.253 µM), 0.738; with Carboplatin + Pemetrexed (first compound 0.8 µM), 0.802; with Carboplatin + Pemetrexed (first compound 2.53 µM) it was 0.689; in the assay with Carboplatin + Pemetrexed (first compound 8 µM), 0.62; in the assay with MLN4924 + Palbociclib (first compound 0.04 µM), 0.335. For the same cell line, the relative viability came to 0.336 with MLN4924 + Palbociclib (first compound 0.1265 µM); 0.321 with MLN4924 + Palbociclib (first compound 0.4 µM); 0.245 with MLN4924 + Palbociclib (first compound 1.265 µM); 0.249 in the assay with MLN4924 + Palbociclib (first compound 4 µM); 0.505 in the assay with MLN4924 + Dasatinib (first compound 0.04 µM); 0.349 with MLN4924 + Dasatinib (first compound 0.1265 µM). The relative viability with MLN4924 + Dasatinib (first compound 0.4 µM) worked out at 0.251; in the assay with MLN4924 + Dasatinib (first compound 1.265 µM) it was 0.151; with MLN4924 + Dasatinib (first compound 4 µM) it was 0.177; in the assay with MLN4924 + Pemetrexed (first compound 0.04 µM), 0.53; with MLN4924 + Pemetrexed (first compound 0.1265 µM), 0.327; with MLN4924 + Pemetrexed (first compound 0.4 µM) it was 0.289. Also, the results for the relative viability with MLN4924 + Pemetrexed (first compound 1.265 µM) and in the assay with MLN4924 + Pemetrexed (first compound 4 µM) were 0.175 and 0.159, respectively.
